This note sets out measurements from US7998989B2, “2-Imino-1,3-thiazoline-based compounds and T-type calcium channel inhibitors containing the same” (Korea Institute of Science and Technology, priority 2007, dated 2011).

Broadly, the melting point is the temperature of the solid-liquid transition.

Data set [1] deals with T1, α1G T-type calcium channel (Homo sapiens, UniProt O43497).
T1 construct: host or cells: HEK293
Nature of the data set: Assay for % inhibiting activity against T-type calcium channel using FDSS6000 (fluo-3 calcium imaging, KCl activation). The format is cell-based. To be noted: HEK293 cells stably expressing α1G T-type calcium channel and Kir2.1, compounds of the examples; for inhibition at 10 µM: HEK293, 10 μM, read-out: FDSS (% inhibition)/10uM. Put shortly: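 Percent inhibition derived from […] area against untreated control (100%), after 75 s compound pre-exposure and 75 mM KCl activation. Cells: HEK293 with stable α1G plus Kir2.1, fluo-3/AM-labelled (5 μM), assayed in pH 7.4 HEPES containing 10 mM CaCl2.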

T1 sequence (O43497 whole entry): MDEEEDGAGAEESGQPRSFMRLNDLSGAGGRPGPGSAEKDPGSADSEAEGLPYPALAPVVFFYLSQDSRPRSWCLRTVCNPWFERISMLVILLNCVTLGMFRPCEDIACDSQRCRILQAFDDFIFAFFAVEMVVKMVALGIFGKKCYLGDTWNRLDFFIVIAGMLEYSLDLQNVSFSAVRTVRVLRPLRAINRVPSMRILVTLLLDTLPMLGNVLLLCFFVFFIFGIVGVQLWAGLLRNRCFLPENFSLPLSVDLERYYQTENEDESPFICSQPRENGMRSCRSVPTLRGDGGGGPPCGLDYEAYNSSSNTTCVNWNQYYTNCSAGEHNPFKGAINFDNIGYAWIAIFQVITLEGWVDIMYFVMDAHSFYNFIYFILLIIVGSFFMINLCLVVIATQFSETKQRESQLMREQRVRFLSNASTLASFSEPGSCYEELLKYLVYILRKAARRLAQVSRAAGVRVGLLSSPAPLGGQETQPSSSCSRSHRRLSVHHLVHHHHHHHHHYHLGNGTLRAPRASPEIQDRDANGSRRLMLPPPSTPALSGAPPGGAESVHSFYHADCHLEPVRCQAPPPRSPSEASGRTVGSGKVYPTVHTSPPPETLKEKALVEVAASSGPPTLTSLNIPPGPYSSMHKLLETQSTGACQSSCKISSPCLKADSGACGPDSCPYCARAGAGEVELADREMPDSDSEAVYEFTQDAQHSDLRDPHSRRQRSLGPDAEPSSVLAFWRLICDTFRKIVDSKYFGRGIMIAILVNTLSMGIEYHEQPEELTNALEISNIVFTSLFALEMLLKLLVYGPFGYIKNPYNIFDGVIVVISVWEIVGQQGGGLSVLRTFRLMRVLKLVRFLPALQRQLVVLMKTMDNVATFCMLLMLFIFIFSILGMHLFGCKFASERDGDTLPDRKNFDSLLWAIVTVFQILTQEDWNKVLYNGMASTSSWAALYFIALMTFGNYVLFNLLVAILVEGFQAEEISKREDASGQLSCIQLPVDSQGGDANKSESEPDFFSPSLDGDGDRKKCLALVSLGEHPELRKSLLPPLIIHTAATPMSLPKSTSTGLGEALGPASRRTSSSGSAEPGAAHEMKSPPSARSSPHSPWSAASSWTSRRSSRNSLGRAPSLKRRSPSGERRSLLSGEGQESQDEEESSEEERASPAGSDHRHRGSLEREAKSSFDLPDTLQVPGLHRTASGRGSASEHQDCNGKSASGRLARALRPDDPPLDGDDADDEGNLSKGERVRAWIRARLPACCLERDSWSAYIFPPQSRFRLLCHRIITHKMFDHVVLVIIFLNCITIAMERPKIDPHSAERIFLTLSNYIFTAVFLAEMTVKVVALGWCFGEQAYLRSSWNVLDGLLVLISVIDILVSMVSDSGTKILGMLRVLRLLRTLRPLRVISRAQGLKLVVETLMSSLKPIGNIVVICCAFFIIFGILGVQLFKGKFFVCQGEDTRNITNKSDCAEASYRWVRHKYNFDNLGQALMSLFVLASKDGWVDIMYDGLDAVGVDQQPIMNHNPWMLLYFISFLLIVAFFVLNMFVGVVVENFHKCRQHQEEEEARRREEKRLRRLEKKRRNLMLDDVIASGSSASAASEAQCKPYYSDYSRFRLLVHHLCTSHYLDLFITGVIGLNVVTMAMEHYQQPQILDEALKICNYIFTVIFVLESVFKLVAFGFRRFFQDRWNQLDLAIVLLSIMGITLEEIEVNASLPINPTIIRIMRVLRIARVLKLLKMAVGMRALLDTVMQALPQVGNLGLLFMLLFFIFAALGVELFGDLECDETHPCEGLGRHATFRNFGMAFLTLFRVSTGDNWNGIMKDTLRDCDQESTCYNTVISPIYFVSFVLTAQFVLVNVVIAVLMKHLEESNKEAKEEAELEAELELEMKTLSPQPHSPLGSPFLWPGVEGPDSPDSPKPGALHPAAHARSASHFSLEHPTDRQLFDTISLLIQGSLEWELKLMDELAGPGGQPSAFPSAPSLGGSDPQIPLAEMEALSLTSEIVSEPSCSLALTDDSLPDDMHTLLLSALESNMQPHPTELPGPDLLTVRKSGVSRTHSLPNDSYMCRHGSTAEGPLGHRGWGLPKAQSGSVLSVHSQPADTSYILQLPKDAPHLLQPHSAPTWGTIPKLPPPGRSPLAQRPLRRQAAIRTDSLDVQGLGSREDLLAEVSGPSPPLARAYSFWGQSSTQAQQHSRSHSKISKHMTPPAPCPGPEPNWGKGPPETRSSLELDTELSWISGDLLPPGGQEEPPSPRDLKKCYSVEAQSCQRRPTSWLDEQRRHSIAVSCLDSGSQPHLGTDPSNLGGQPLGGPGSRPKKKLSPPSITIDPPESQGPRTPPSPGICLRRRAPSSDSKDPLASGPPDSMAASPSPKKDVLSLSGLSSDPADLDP

On to `CC1SC(=NC2CCCCC2)N(C)C1CC(=O)Nc1ccc(F)cc1.Cl` (stereo not shown) [KHG24525, (2-cyclohexylimino-3,5-dimethyl-1,3-thiazolidine-4-yl)-N-(4-fluorophenyl)-acetamide hydrochloride], for which the melting point fell in the range of 267 to 269 °C. In data set [1], the inhibition at 10 µM came to 31.5%.

Compound `CC(C)c1ccc(NC(=O)CC2C(C)SC(=NC3CCCCC3)N2C)cc1.Cl` (stereo not shown) [KHG24526, (2-cyclohexylimino-3,5-dimethyl-1,3-thiazolidine-4-yl)-N-(4-isopropylphenyl)-acetamide hydrochloride] displayed a melting point of 265 to 267 °C. The inhibition at 10 µM in data set [1] was found to be 42.3%.

Turning to `CC1SC(=NC2CCCCC2)N(C)C1CC(=O)Nc1ccc(C(F)(F)F)cc1.Cl` (stereo not shown) [KHG24527, (2-cyclohexylimino-3,5-dimethyl-1,3-thiazolidine-4-yl)-N-(4-trifluoromethylphenyl)-acetamide hydrochloride], the melting point is 190 to 192 °C. Moreover, the inhibition at 10 µM in data set [1] came out at 47%.

In the case of `CC(C)c1cccc(NC(=O)CC2CSC(=NC3CCCCC3)N2C)c1.Cl` (stereo not shown) [KHG24528, (2-cyclohexylimino-3-methyl-1,3-thiazolidine-4-yl)-N-(3-isopropylphenyl)-acetamide hydrochloride], the melting point turned out to be 160 °C. Also, the inhibition at 10 µM in data set [1] turned out to be 54.2%.

Compound `CN1C(=NC2CCCCC2)SCC1CC(=O)Nc1cccc(Cl)c1Cl.Cl` (stereo not shown) [KHG24530, (2-cyclohexylimino-3-methyl-1,3-thiazolidine-4-yl)-N-(2,3-dichlorophenyl)-acetamide hydrochloride] showed a melting point of 215 °C. The inhibition at 10 µM in data set [1] came to 38.5%.

In turn, `CN1C(=NC2CCCCC2)SCC1CC(=O)Nc1ccc(Cl)c(Cl)c1.Cl` (stereo not shown) [KHG24531, (2-cyclohexylimino-3-methyl-1,3-thiazolidine-4-yl)-N-(3,4-dichlorophenyl)-acetamide hydrochloride] yielded a melting point of 223 °C. Also, the inhibition at 10 µM in data set [1] is 48.4%.

Consider `CN1C(=NC2CCCCC2)SCC1CC(=O)Nc1cc(Cl)ccc1Cl.Cl` (stereo not shown) [KHG24532, (2-cyclohexylimino-3-methyl-1,3-thiazolidine-4-yl)-N-(2,5-dichlorophenyl)-acetamide hydrochloride], for which the melting point came out at 208 °C. For the same compound, the inhibition at 10 µM in data set [1] was 52.5%.

Compound `CN1C(=NC2CCCCC2)SCC1CC(=O)Nc1cc(Cl)c(Cl)cc1Cl.Cl` (stereo not shown) [KHG24533, (2-cyclohexylimino-3-methyl-1,3-thiazolidine-4-yl)-N-(2,4,5-trichlorophenyl)-acetamide hydrochloride] returned a melting point of 186 °C. Also, the inhibition at 10 µM in data set [1] was 48.9%.

As for `CN1C(=NC2CCCCC2)SCC1CC(=O)Nc1cc(F)cc(F)c1.Cl` (stereo not shown) [KHG24534, (2-cyclohexylimino-3-methyl-1,3-thiazolidine-4-yl)-N-(3,5-difluorophenyl)-acetamide hydrochloride], the melting point is 240 °C. Besides, in data set [1], the inhibition at 10 µM is 45.7%.

`Cl.O=C(CC1CSC(=NC2CCCCC2)N1C1CCCCC1)NCc1ccccc1C(F)(F)F` (stereo not shown) [KHG24547, (2-cyclohexylimino-3-cyclohexyl-1,3-thiazolidine-4-yl)-N-(2-trifluoromethylbenzyl)-acetamide hydrochloride] had a melting point of 180 °C. Moreover, the inhibition at 10 µM in data set [1] is 51.1%.

`CN1C(=NC2CCCCCC2)SCC1C(=O)Nc1cc(F)ccc1F.Cl` (stereo not shown) [KHG24626, (2-cycloheptylimino-3-methyl-1,3-thiazolidine-4-yl)-N-(2,5-difluorophenyl)-carboxamide hydrochloride] gave a melting point of 187.9 °C. The inhibition at 10 µM in data set [1] was 42.6%.

On to `CN1C(=NC2CCCCCC2)SCC1C(=O)Nc1ccc(F)c(F)c1` (stereo not shown) [KHG24627, (2-cycloheptylimino-3-methyl-1,3-thiazolidine-4-yl)-N-(3,4-difluorophenyl)-carboxamide], for which the melting point came out at 209.6 °C. Moreover, the inhibition at 10 µM in data set [1] was determined as 48.5%.

In turn, `Cc1ccc(NC(=O)C2CSC(=NC3CCCCCC3)N2C)cc1.Cl` (stereo not shown) [KHG24629, (2-cycloheptylimino-3-methyl-1,3-thiazolidine-4-yl)-N-(4-methylphenyl)-carboxamide hydrochloride] displayed a melting point of 202.1 °C. Further, the “FDSS (% inhibition)/10uM” value in data set [1] is reported as 47.03%.

On to `CN1C(=NC2CCCCCC2)SCC1C(=O)Nc1cc(C(F)(F)F)cc(C(F)(F)F)c1.Cl` (stereo not shown) [KHG24632, (2-cycloheptylimino-3-methyl-1,3-thiazolidine-4-yl)-N-(3,5-ditrifluoromethylphenyl)-carboxamide hydrochloride], for which the melting point was 202 °C. For the same compound, the “FDSS (% inhibition)/10uM” value in data set [1] is 57.06%.

For the compound `CN1C(=NC2CCCCCC2)SCC1C(=O)Nc1ccc(Br)cc1` (stereo not shown) [KHG24633, (2-cycloheptylimino-3-methyl-1,3-thiazolidine-4-yl)-N-(4-bromophenyl)-carboxamide], the melting point stood at 109.2 °C. Moreover, in data set [1], the inhibition at 10 µM is 40.4%.

Regarding `CN1C(=NC2CCCCCC2)SCC1C(=O)Nc1ccccc1Br.Cl` (stereo not shown) [KHG24634, (2-cycloheptylimino-3-methyl-1,3-thiazolidine-4-yl)-N-(2-bromophenyl)-carboxamide hydrochloride], the melting point is 232.8 °C. Moreover, the inhibition at 10 µM in data set [1] was 46.9%.

`CC1SC(=NC2CCCCC2)N(C)C1CC(=O)Nc1cccc(F)c1.Cl` (stereo not shown) [KHG24636, (2-cyclohexylimino-3,5-dimethyl-1,3-thiazolidine-4-yl)-N-(3-fluorophenyl)-acetamide hydrochloride]: the melting point lay within 257 to 259 °C. Also, in data set [1], the inhibition at 10 µM amounted to 35.2%.

`CC1SC(=NC2CCCCCC2)N(C)C1CC(=O)Nc1ccccc1.Cl` (stereo not shown) [KHG24638, (2-cycloheptylimino-3,5-dimethyl-1,3-thiazolidine-4-yl)-N-phenyl-acetamide hydrochloride] gave a melting point of 236 to 238 °C. Besides, the inhibition at 10 µM in data set [1] amounted to 40.8%.

`Cc1ccc(NC(=O)CC2C(C)SC(=NC3CCCCCC3)N2C)cc1.Cl` (stereo not shown) [KHG24639, (2-cycloheptylimino-3,5-dimethyl-1,3-thiazolidine-4-yl)-N-(4-methylphenyl)-acetamide hydrochloride] registered a melting point of 248 to 250 °C. Also, the inhibition at 10 µM in data set [1] amounted to 48.5%.

Turning to `CC1SC(=NC2CCCCCC2)N(C)C1CC(=O)Nc1ccccc1F.Cl` (stereo not shown) [KHG24640, (2-cycloheptylimino-3,5-dimethyl-1,3-thiazolidine-4-yl)-N-(2-fluorophenyl)-acetamide hydrochloride], the melting point was 197 to 199 °C. In addition, the inhibition at 10 µM in data set [1] came out at 39.6%.

Compound `CC1SC(=NC2CCCCCC2)N(C)C1CC(=O)Nc1cccc(F)c1.Cl` (stereo not shown) [KHG24641, (2-cycloheptylimino-3,5-dimethyl-1,3-thiazolidine-4-yl)-N-(3-fluorophenyl)-acetamide hydrochloride] yielded a melting point of 247 to 249 °C. The inhibition at 10 µM in data set [1] came out at 63.5%.

As to `CC1SC(=NC2CCCCCC2)N(C)C1CC(=O)Nc1ccc([N+](=O)[O-])cc1.Cl` (stereo not shown) [KHG24642, (2-cycloheptylimino-3,5-dimethyl-1,3-thiazolidine-4-yl)-N-(4-nitrophenyl)-acetamide hydrochloride], the melting point was in the range of 255 to 258 °C. In data set [1], the inhibition at 10 µM stood at 66.7%.

`CC1SC(=NC2CCCCCC2)N(C)C1CC(=O)Nc1ccc(Cl)cc1.Cl` (stereo not shown) [KHG24643, (2-cycloheptylimino-3,5-dimethyl-1,3-thiazolidine-4-yl)-N-(4-chlorophenyl)-acetamide hydrochloride] gave a melting point of 240 to 242 °C. Also, the inhibition at 10 µM in data set [1] was 65.4%.

In turn, `CC1SC(=NC2CCCCCC2)N(C)C1CC(=O)Nc1cc(Cl)cc(Cl)c1.Cl` (stereo not shown) [KHG24644, (2-cycloheptylimino-3,5-dimethyl-1,3-thiazolidine-4-yl)-N-(3,5-dichlorophenyl)-acetamide hydrochloride] came in with a melting point of 248 to 250 °C. For the same compound, the inhibition at 10 µM in data set [1] came to 53.4%.

The compound `CC1SC(=NC2CCCCCC2)N(C)C1CC(=O)Nc1cc([N+](=O)[O-])ccc1F.Cl` (stereo not shown) [KHG24645, (2-cycloheptylimino-3,5-dimethyl-1,3-thiazolidine-4-yl)-N-(2-fluoro-5-nitrophenyl)-acetamide hydrochloride] registered a melting point of 248 to 251 °C. For the same compound, the inhibition at 10 µM in data set [1] was determined as 48.4%.

Consider `CC1SC(=NC2CCCCCC2)N(C)C1CC(=O)Nc1cc(C(F)(F)F)cc(C(F)(F)F)c1.Cl` (stereo not shown) [KHG24646, (2-cycloheptylimino-3,5-dimethyl-1,3-thiazolidine-4-yl)-N-(3,5-ditrifluoromethylphenyl)-acetamide hydrochloride], for which the melting point fell in the range of 217 to 219 °C. Moreover, in data set [1], the inhibition at 10 µM came to 58.1%.

As for `CC1SC(=NC2CCCCCC2)N(C)C1CC(=O)Nc1ccc(OC(F)(F)F)cc1.Cl` (stereo not shown) [KHG24647, (2-cycloheptylimino-3,5-dimethyl-1,3-thiazolidine-4-yl)-N-(4-trifluoromethoxyphenyl)-acetamide hydrochloride], the melting point lay within 247 to 271 °C. Also, the inhibition at 10 µM in data set [1] was 62.4%.

As for `CC1SC(=NC2CCCC2)N(C)C1CC(=O)Nc1ccc(C(C)(C)C)cc1.Cl` (stereo not shown) [KHG24656, (2-cyclopentylimino-3,5-dimethyl-1,3-thiazolidine-4-yl)-N-(4-t-butylphenyl)-acetamide hydrochloride], the melting point lay within 220 to 223 °C. Besides, in data set [1], the inhibition at 10 µM was 46.1%.

In the case of `CC1SC(=NC2CCCC2)N(C)C1CC(=O)Nc1ccc(Cl)cc1.Cl` (stereo not shown) [KHG24657, (2-cyclopentylimino-3,5-dimethyl-1,3-thiazolidine-4-yl)-N-(4-chlorophenyl)-acetamide hydrochloride], the melting point lay within 201 to 203 °C. Moreover, in data set [1], the inhibition at 10 µM is 48%.
